Experiments:
[1] = test system: trisbipyridine cryptate TBP; conditions: TBP donor, d2 acceptor; 20 mM; incubation 16 h at ambient temperature
Protocol: Two identical experiments aimed at detecting a GST-biotin protein were carried out. In each of the experiments, a particular rare earth complex was used as FRET donor: either the trisbipyridine cryptate TBP or a terbium chelate sold in a form conjugated to an anti-GST antibody by the company Invitrogen (Cat no. PV3568).
The biotinylated GST protein was dispensed into a 96-well plate. Its presence was detected by FRET between the donor (the TBP or the terbium chelate) (carried by an anti-GST antibody) and the d2 acceptor (carried by streptavidin), after incubation for 16 h at ambient temperature in the presence or absence of 20 mM of manganese chloride (MnCl2) or of EDTA. A time-resolved fluorescence measurement is carried out (td=50 μs, tg=400 μs) at 620 nm and 665 nm (respectively E620 and E665) on a Rubystar® machine (BMG Labtech). Based on the fluorescence intensity values, E620 and E665, the E665/E620 intensity ratio is calculated and multiplied by 10 000 for greater convenience. […] In order to compare the delta F values obtained in the various media for the same donor, said values are normalized relative to the delta F obtained in buffer (100%).

[2] = test system: pyridine-bis(bipyridine) cryptate PBP4COOH; experiment: FRET between PBP4COOH donor and d2 acceptor (biotinylated GST detection) with uric acid; conditions: PBP4COOH donor, 60 μM, incubation 16 h at ambient temperature
Protocol: (§1) In each of the experiments, a particular rare earth complex was used as FRET donor: either the trisbipyridine cryptate TBP or a pyridine-bis(bipyridine) cryptate PBP4COOH of formula: […]
(§2) Its presence was detected via FRET between the donor (the TBP or PBP4COOH) (carried by the anti-GST antibody) and the d2 acceptor (carried by streptavidin), after incubation for 16 h at ambient temperature in the presence or absence of 60 μM of uric acid. A time-resolved fluorescence measurement (td=50 μs, tg=400 μs) is carried out at 620 nm and 665 nm (E620 and E665, respectively) on a Rubystar® machine (BMG Labtech).
(§3) • 1.25 nM biotinylated GST; 2 nM anti-GST; 5 nM streptavidin; • 60 μm uric acid. Final reaction volume: 200 μl Buffer: 100 mM phosphate, pH 7.0, 0.10% BSA. Results

europium cryptate TBP = experiment: FRET between TBP donor and d2 acceptor (biotinylated GST detection) with uric acid; conditions: TBP donor, 60 μM, incubation 16 h at ambient temperature
Protocol: as §1, §2, §3

| Molecule | FRET signal (normalized delta F) [1] | FRET signal (normalized delta F) [2] | FRET signal inhibited (europium cryptate TBP) |
| --- | --- | --- | --- |
| manganese chloride [MnCl2] | does not modify |  |  |
| O=c1[nH]c(=O)c2[nH]c(=O)[nH]c2[nH]1 [uric acid] |  | does not modify | more than 85% |
| O=C(O)CN(CCN(CC(=O)O)CC(=O)O)CC(=O)O [EDTA] | does not modify |  |  |
